These are literature values, as cited in patent US20070155727A1, “Amide inhibitors of leukotriene A4 hydrolase” (Schering Aktiengessellschaft, priority 2005, published 2007).

pKd: −log10 of the molar value.

One series concerns colitis. The note with it: eight weeks of treatment, cotton top tamarins.
The target in series [1] is T1, LTA4-h (Mus musculus, UniProt P24527).
T1 construct: host or cells: mouse blood ex vivo after oral dosing
T1 sequence (P24527 1-611): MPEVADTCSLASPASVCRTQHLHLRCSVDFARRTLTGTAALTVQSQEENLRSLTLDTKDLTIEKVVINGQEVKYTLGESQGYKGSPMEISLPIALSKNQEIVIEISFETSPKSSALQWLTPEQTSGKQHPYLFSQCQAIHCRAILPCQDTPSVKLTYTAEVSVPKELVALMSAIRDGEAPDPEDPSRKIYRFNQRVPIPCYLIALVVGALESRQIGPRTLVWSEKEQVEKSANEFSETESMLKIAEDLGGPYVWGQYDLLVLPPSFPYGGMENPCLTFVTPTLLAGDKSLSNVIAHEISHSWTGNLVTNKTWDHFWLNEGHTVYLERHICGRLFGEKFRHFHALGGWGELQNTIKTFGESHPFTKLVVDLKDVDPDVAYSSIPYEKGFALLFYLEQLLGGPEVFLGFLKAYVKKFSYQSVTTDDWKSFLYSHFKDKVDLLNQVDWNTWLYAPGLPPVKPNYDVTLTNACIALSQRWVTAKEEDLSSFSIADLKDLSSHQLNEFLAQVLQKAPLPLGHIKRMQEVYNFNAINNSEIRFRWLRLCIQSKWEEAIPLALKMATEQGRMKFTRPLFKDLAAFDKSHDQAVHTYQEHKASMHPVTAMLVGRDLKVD
The note with it: oral administration, mouse blood ex vivo.

The target of series [2] is T2, LTA4-h (Rattus norvegicus, UniProt P30349).
T2 construct: and in rat peritoneum in vivo; host or cells: rat peritoneum in vivo
T2 sequence (P30349 1-611): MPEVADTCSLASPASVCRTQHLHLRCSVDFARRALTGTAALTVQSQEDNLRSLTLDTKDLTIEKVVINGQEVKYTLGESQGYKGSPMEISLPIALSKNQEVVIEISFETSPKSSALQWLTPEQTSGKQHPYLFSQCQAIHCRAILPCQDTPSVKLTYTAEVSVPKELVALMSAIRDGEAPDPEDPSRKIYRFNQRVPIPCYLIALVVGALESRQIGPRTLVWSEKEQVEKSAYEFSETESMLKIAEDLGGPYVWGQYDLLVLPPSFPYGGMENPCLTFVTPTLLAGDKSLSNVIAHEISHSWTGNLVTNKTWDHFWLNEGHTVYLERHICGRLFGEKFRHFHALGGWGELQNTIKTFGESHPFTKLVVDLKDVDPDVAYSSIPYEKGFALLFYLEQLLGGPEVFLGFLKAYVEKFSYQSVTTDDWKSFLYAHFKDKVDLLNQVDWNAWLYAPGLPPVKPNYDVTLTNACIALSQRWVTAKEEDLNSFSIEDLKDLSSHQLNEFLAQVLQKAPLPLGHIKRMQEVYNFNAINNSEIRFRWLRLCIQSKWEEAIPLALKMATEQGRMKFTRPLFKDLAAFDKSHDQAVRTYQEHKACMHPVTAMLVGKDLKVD
The note with it: oral administration, rat peritoneum in vivo.

The next series concerns the target LTB4 receptor. The note with it: read-out: Kd, additional lower affinity LTB4 receptors; neutrophils.
The target of the next series is BLT1. Conditions: human BLT1 and its mouse, rat and guinea pig orthologues.

Regarding `CN(CCCOc1ccc(Cc2ccccc2)cc1)CCC(=O)O.Cl` [SC57461], the colitis symptoms entry with colitis is listed as “significantly improved colitis symptoms”. The “inhibition of ionophore-induced LTB4 production” value at LTA4-h [1] and at LTA4-h [2] was “caused inhibition of ionophore-induced LTB4 production” throughout.

The term pKd denotes −log10 of the Kd, conventionally taken in molar units. With `CCCCC/C=C\C[C@@H](O)/C=C/C=C/C=C\[C@@H](O)CCCC(=O)O` [LTB4, Leukotriene B4], the pKd on LTB4 receptor is below 7.22; at BLT1, 9.15 to 10.00.
